Measured values as given in a melting point compilation (Tetko et al.; mined from patent text by program, amines drawn as free bases though some values may be those of a salt).

SMILES | melting point [°C]
O=C(O)CCCCCCCNS(=O)(=O)c1ccc(F)cc1 | 97 to 98
CN(C(=O)CCN1CCC(C(O)(c2ccc(F)cc2)c2ccc(F)cc2)CC1)c1ccccc1 | 73 to 75
Clc1cccc(N2CCN(CCCc3nnn[nH]3)CC2)c1 | 162 to 164
CC(=O)NCC1=C(N2CCCC2=O)c2cc([N+](=O)[O-])ccc2OC1(C)C | 205
CC1(C)CCC(C)(C)c2cc(-c3cc(-c4ccc(C(=O)O)cc4)ccc3CC(O)CO)ccc21 (stereo unspecified) | 145
CC1(C)CS(=O)(=O)CC(C)(C)N1N | 122
CC(C)NS(=O)(=O)c1cccc(F)c1C#N | 184 to 189
CC(C)c1cc(S(=O)(=O)C(C)C)c(C(C)C)cc1C#N | 130 to 134
CCNc1nc(N)nc2c1ncn2C1C=CC(CO)C1 (stereo unspecified) | 171 to 173
O=C(Nc1ccc(-n2nc(C(F)(F)F)cc2C(F)(F)F)cc1)C1(O)CC1 | 198 to 200
Brc1ccc(OCCCCCN2CCN(c3nccs3)CC2)cc1 | 73 to 75
NCc1ccc(C(=O)Nc2ccc(-n3nc(C(F)(F)F)cc3C(F)(F)F)cc2)c(Cl)c1 | 90 to 93
Fc1cc2[nH]c(S)nc2cc1N1CCCC1 | 170 to 171
CC1(C)CC(O)CC(C)(C)N1OC1C=CCCC1 (stereo unspecified) | 65 to 66.5
Cc1ccc(C(C#N)=NOS(C)(=O)=O)cc1C | 91 to 95
CC(C)(C)OC(=O)N1CCC[C@H](O)[C@@H]1c1ccccc1 | 66 to 67
O=C(O)[C@@H]1C[C@@H](O)CN1C(=O)OCc1ccccc1 | 106 to 107
CCCC1=C(C(=O)OCC)C(c2cccc3nsnc23)c2c[nH]nc2N1 (stereo unspecified) | 180
COc1cc2c(cc1OC)C1CC(=O)C3CCCC3N1CC2 (stereo unspecified) | 105 to 114
CCCNC(=O)CP(=O)(O)O | 155 to 160
CCN1C(=O)C(C)(C)N=C(c2ccccc2Cl)c2cc([N+](=O)[O-])ccc21 | 178
CCCCN(C)C(=O)c1ccc(S(=O)(=O)CCCn2c(CCC)nc3c(N)nc(C)c(C)c32)cc1 | 127 to 129

SMILES | melting point [°C]
CCOC(=O)C1CCCCN1C(=O)Nc1cc(C(=O)OC(C)C)c(Cl)cc1F (stereo unspecified) | 83 to 85
O=C1C(=O)c2c(nc3ccccn23)-c2cccc(Br)c21 | > 260
NC(=O)c1ccc(N)c(C(N)=O)c1 | 177 to 198
N#CC1=C(c2ccccc2)Nc2n[nH]cc2C1c1cccc2c1OCCC2 (stereo unspecified) | 255
CC1SC(=O)NN=C1c1cccc(N)c1 (stereo unspecified) | 167 to 170
CC(C)(C)NC(=O)C(NC(C)(C)C)=C1CCCC1 | 80 to 83
CC(C)C1N(CC(N)=O)C(=O)CN1C(=O)CCl (stereo unspecified) | 163
CCOC(=O)c1c(C)cc(NC(C)=O)c(C(=O)O)c1C | 170 to 171
CC1(C)CC(=O)c2c(C(=O)Nc3ccsc3)c[nH]c2C1 | 217 to 218
O=C(O)c1cnncc1C(F)(F)F | 150 to 151
CCCCc1ccc(/C(Cl)=C/c2ccc(Br)cc2)cc1 | 59 to 61
O=C(O)c1ccc(F)c2c1CC(N(CCCc1c[nH]c3ccc(F)cc13)C1CCC1)CO2 (stereo unspecified) | 140
C#CCCCCn1ncc2c(N)c(C(=O)OCC=C)c(C)nc21 | 69 to 70
O=C1C=CC=C2C=CC=C12 | 70 to 71
COC(=O)C1CN(C(=O)C2=Cc3cc(OC)c(OC)cc3CCC2)CCN1 (stereo unspecified) | 103 to 104
NC(P(=O)(O)O)P(=O)(O)O | 255 to 265
CNc1nc2ccccc2n2cnnc12 | > 300
COc1cc(N2C(=O)C3(CC3)[C@@H](O)[C@@H]2C)ccc1C#N | 167 to 169
COc1cc(-c2ccsc2)cc2oc(=O)c(C)c(C)c12 | 158 to 160
CCC(=O)NCC[C@@H]1CCc2cc(Br)c(O)c(CCO)c21 | 85 to 87
CC(C)(C)CC(=O)NCc1cccs1 | 83 to 84
CCCN(CCC)CCCC1CCN(CCNC(=O)N2c3cc(C)ccc3C(=O)Nc3cccnc32)CC1 | 195

SMILES | melting point [°C]
CCC(=O)Nc1c(C(O)(C(F)(F)F)C(F)(F)F)ccc2ccccc12 | 118 to 119
O=C(Cc1ccccc1)N1CCC2(Cc3ccccc3O2)C1 (stereo unspecified) | 98 to 99
Nc1nc2ccc(Cl)cc2nc1N | 290
CCN1CN(C)CN(c2cc(Cl)ccc2C)C1=S | 129 to 131
O=C(CC1CCN(Cc2ccccc2)CC1)Nc1noc(C2CN3CCC2CC3)n1 (stereo unspecified) | 133 to 134
COc1c(C)c(C)c(OC)c(CN2C(=O)C3CCCC3=Nc3ccccc32)c1C (stereo unspecified) | 202 to 204
FC(F)c1nc2ccccc2n1-c1nc(Nc2cncnc2)nc(N2CCOCC2)n1 | 290 to 292
CSc1sc(-c2ccncc2)c2c1C(=O)CCC2 | 115 to 116
Cn1ncc(CN2C(=O)c3ccccc3C2=O)c1-c1ccc(Cl)cc1C(=O)c1ccccc1F | 153 to 155
CC(C)(NCCONC(C)(C)C(=O)CCn1ccnc1[N+](=O)[O-])C(=O)CCn1ccnc1[N+](=O)[O-] | 90 to 92
CC(=O)NC[C@H]1CN(c2ccc(-c3noc(C)n3)c(F)c2)C(=O)O1 | 177 to 179
O=S(=O)(O)OC[C@H]1Cc2ccccc2CN1 | 318
COC1c2c(c(C)nn2-c2ccccn2)C(=O)CC1(C)C (stereo unspecified) | 86 to 89
CCC(CC)(C(=O)OC1CC(C)(C)N(OCc2ccccc2)C(C)(C)C1)C(=O)OC1CC(C)(C)N(OCc2ccccc2)C(C)(C)C1 | 122 to 123
c1ccc(C2CCNCc3ccccc3O2)cc1 (stereo unspecified) | 73 to 74
O=C(Nc1ccc(Oc2ccc(CCC(=O)N3CCN(Cc4ccc5c(c4)OCO5)CC3)cc2)nc1)c1ccc(C(F)(F)F)cc1 | 140 to 141
CCOC(=O)C(O)(CC(=O)c1ccc(-n2ccnc2)cc1)C(=O)OCC | 155 to 156
O=C1CC(=O)OC2(O1)SC=CS2 | 59 to 60
Cn1nnnc1NCCSCc1csc(NC(=N)N)n1 | 80 to 83
CN1C(=O)C2(COc3cc4c(cc32)OCCO4)c2c(-c3cn[nH]c3)cccc21 (stereo unspecified) | 250 to 251
CCOC(=O)c1ncn(-c2nccs2)c1N | 120 to 123
CC(C)(C)NC(=O)c1nn(-c2ccc(F)cc2)c2c1C1CC3CC(C1)CC2C3 | 214 to 216

The next lines start with the values.

melting point [°C] | SMILES
161 to 163 | Oc1ccc(Br)cc1C=Nc1cc(Cl)cc(Cl)c1
60 to 64.5 | COc1ccc2c(c1)c(Cc1cc(=O)n(-c3cccc(C(F)(F)F)c3)[nH]1)c(C)n2C(=O)c1ccccc1
> 300 | COC(=O)c1ccc(CCc2cnc3nc(N)nc(O)c3c2)cc1
108 to 110 | CC(C)(C(=O)O)c1cn2nc(CCCCN3CCN(C(c4ccccc4)c4ccccc4)CC3)ccc2n1
112 | COC(=O)CCCc1cc2nc(Cl)ccc2n1S(=O)(=O)c1cccc2nsnc12
120 to 124 | O=S(=O)(NCC(c1ccccc1)c1ccc(O)cc1)c1ccccc1 (stereo unspecified)
206 to 208 | Fc1cc(CC2(Cc3ccncc3)c3ccccc3Oc3ncccc32)ccn1 (stereo unspecified)
225 to 226 | COc1cc(C=CC(=O)Nc2c(C)nc3c(C)cc(C)cc3c2-c2ccccc2Cl)cc(OC)c1OC(C)=O
96 | C#CCN1CCCc2ccc(OC(=O)Nc3ccccc3C)cc21
135 to 138 | Cc1noc2cc3c(cc12)C1(CO3)C(=O)N(CCC(C)C)c2ccccc21 (stereo unspecified)
223 | CNC(=O)C(NC(=O)c1ccc(F)cc1C(F)(F)F)C(C[N+](=O)[O-])c1ccccc1 (stereo unspecified)
83 to 85 | O=S(=O)(/C=C/c1ccccc1)Nc1ccc(F)cc1
119 to 121 | CCOC(Cc1ccccc1)=C1SC(=S)N(c2ccccc2)C1=O
85 to 86 | CCOC(=O)COc1c(CC=C(C)C)c(OC)cc(OC)c1C(=O)C=Cc1ccc(OC)cc1
159 | O=C(Nc1ccccc1S(=O)(=O)N1CCCCC1)N[C@@H](Cc1ccc(Oc2nccc3ccncc23)cc1)C(=O)O
208 | Cc1ccc(S(=O)(=O)N(C)c2cc(C)cc([N+](=O)[O-])c2N)cc1
95.8 | Cc1cc(-c2ccccc2)nc2c1ccn2-c1ccc(C(C)C)cc1Br
88 to 90 | CCCc1nn(C)c2c(=O)n(CCNc3ccc(OC(C)(C)C(=O)O)cc3)c(C)nc12

melting point [°C] | SMILES
192 to 193 | Cn1ncnc1-c1oc2cccc(CCc3ccc(F)cc3)c2c(=O)c1O
183 to 185 | CCN1c2ncc(COc3cccc4[nH]ccc34)cc2C(=O)N(C)c2ccc(Cl)nc21
194 to 196 | COC(=O)c1c(C)[nH]c(=S)n1Nc1cccc(Cl)c1
124 to 125 | Cc1ccc(OCC(=O)c2cc(C(C)C)c(O)c(C(C)C)c2)cc1
143 to 145 | ClCCOc1c2ccccc2c(OCCCl)c2ccccc12
88 to 90 | CNCC(O)COc1cccc(Nc2cc(Nc3cccc(C)c3)ncn2)c1 (stereo unspecified)
143 to 144 | CC(C)(C)c1cc(Cc2ccc(Cl)nn2)c(O)c(C(C)(C)C)c1
129 to 130 | C(=C\c1nc(COc2ccc(CCCn3ccnc3)cc2)cs1)/c1ccccc1
196 to 199 | CSc1ccc(NC(=O)C2C(=O)N(c3ccccc3)N=C2C)cc1 (stereo unspecified)
171 | CNc1ccc(C=CC(=O)N2CCc3c([nH]c4ccccc34)C2c2ccc3c(c2)CCO3)cn1 (stereo unspecified)
225 to 227 | O=C(O)COc1cc(Cl)ccc1C(=O)NCc1nc2cc(C(F)(F)F)ccc2s1
114 to 115 | Cc1oc(-c2ccccc2)nc1COc1ccc2c(c1)CCC(C=O)=C2
144 to 146 | CN(C)CC(O)CC1(O)c2ccccc2CCc2ccccc21 (stereo unspecified)
161 to 162 | CC(C)Nc1cccnc1N1CCN(C(=O)c2ccc(C(=O)NC(C)(C)C)cn2)CC1
106 to 107 | COc1cccc(NC(=O)c2ccccc2C(c2ccc(O)cc2)c2ccc(O)cc2)c1
142 | CCC(C)Cc1ccc(OC(=O)c2ccc(O)cc2Cl)cc1 (single isomer, unassigned; (+))
73 to 80 | C[C@H](COc1ccc(C=C2SC(=S)N(CC(=O)O)C2=O)cc1O[C@@H](c1ccccc1)C(F)(F)F)c1ccccc1
